We go through eight molecules from US10752587B2, “Homobispiperidinyl derivatives as liver X receptor beta agonists, compositions and their use” (Merck Sharp & Dohme Corp., priority 2015, dated 2020).

Where two headings read alike, the source gives them in different places.

For assay [1], the target named is T1, glutathione-S-transferase (GST) tagged LXRalpha LBD (ligand binding domain) (Homo sapiens, UniProt Q13133).
T1 construct: purchased Invitrogen pv4655
T1 sequence (Q13133 209-447 limits assumed): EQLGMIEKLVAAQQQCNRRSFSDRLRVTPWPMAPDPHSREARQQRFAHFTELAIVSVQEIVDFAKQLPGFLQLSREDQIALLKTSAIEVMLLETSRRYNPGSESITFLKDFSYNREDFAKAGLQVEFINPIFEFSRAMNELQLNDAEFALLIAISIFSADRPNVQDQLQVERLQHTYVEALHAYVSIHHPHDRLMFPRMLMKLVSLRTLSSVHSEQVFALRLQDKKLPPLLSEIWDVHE
The assay can be described thus: LanthaScreen TR-FRET Liver X Receptor Coactivator Assay, co-activator recruitment to LXRalpha LBD. The format is biochemical. The conditions noted are these: for Emax / LXR alpha Activity @ max dose (%): efficacy at max dose, in relation to reference dual agonist T0901317; for Emax: read-out: LXR alpha Activity @ max dose (%); for EC50 / LXR alpha IP (nM): potency (Inflection Point, IP), co-activator recruitment to LXRalpha LBD, in relation to T0901317; for EC50: read-out: LXR alpha IP. In a few lines:
(§1)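 GST-tagged LBD added to test compound, then fluorescein-labelled coactivator peptide plus terbium anti-GST antibody; incubated at room temperature, TR-FRET read. Potency given as inflection point and efficacy as Emax relative to reference dual agonist T0901317.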
(Time-resolved FRET reads energy transfer from a long-lived donor to a nearby acceptor.)

Assay [2] has as its target T2, glutathione-S-transferase (GST) tagged LXRbeta LBD (ligand binding domain) (Homo sapiens, UniProt P55055).
T2 construct: purchased Invitrogen pv4658.pps
T2 sequence (P55055 222-460 limits assumed): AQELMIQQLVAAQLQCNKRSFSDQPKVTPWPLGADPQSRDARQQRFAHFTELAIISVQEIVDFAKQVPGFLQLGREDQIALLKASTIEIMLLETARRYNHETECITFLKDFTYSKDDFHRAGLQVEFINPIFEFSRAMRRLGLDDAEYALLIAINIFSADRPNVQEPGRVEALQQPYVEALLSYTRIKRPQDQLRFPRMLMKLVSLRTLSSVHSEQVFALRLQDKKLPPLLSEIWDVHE
The assay is described as follows: LanthaScreen TR-FRET Liver X Receptor Coactivator Assay, co-activator recruitment to LXRbeta LBD. Format: biochemical. The conditions noted are these: for Emax: read-out: LXR beta Activity @ max dose (%); for EC50: potency (Inflection Point, IP), co-activator recruitment to LXRbeta LBD, in relation to T0901317. Put shortly:
as §1

Setting [3] is: efficacy at max dose, in relation to reference dual agonist T0901317.

Turning to `CNC(=O)c1ccc(N2CCC(OC3CCN(C(=O)[C@](O)(c4ccccc4)C(F)(F)F)CC3)CC2)cc1Cl` [Example 7-26, 2-chloro-N-methyl-4-[4-({1-[(2R)-3,3,3-trifluoro-2-hydroxy-2-phenylpropanoyl]piperidin-4-yl}oxy)piperidin-1-yl]benzamide], the figures for the Emax in assay [1] and in assay [2] (setting [3]) were 35% and 115%, respectively. The EC50 amounted to 2.26 µM in assay [1] and 125 nM in assay [2] (read-out: LXR beta IP).

Turning to `COc1cccc([C@@](O)(C(=O)N2CCC(SC3CCN(c4ccc(C(=O)N(C)C)c(Cl)c4)CC3)CC2)C(F)(F)F)c1` [Example 10-1, (R)-2-chloro-N,N-dimethyl-4-(4-(1-(3,3,3-trifluoro-2-hydroxy-2-(3-methoxyphenyl)propanoyl)piperidin-4-ylthio)piperidin-1-yl)benzamide], the Emax in assay [1] was found to be 8%; in assay [2], 56%. Further, the “LXR alpha IP (nM)” value in assay [1] was “NO IP”. For the same molecule, the EC50 in assay [2] (LXR beta IP (nM)) is 22 nM.

Regarding `CN(C)C(=O)c1ccc(N2CCC(OC3CCN(C(=O)[C@](O)(c4ccccc4)C(F)(F)F)CC3)CC2)cc1Cl` [Example 2-21, 2-chloro-N,N-dimethyl-4-[4-({1-[(2R)-3,3,3-trifluoro-2-hydroxy-2-phenylpropanoyl]piperidin-4-yl}oxy)piperidin-1-yl]benzamide], in assay [1], the “LXR alpha Activity @ max dose (%)” value was 0% and the “LXR alpha IP (nM)” value is given as “NO IP”. Also, the “LXR beta Activity @ max dose (%)” value in assay [2] (setting [3]) stood at 65%.

As for `CN(C)C(=O)c1ccc(N2CCC(CC3CCN(C(=O)[C@](O)(c4ccccc4)C(F)(F)F)CC3)CC2)cc1Cl` [Example 2-43, 2-chloro-N,N-dimethyl-4-[4-({1-[(2R)-3,3,3-trifluoro-2-hydroxy-2-phenyl-propanoyl]piperidin-4-yl}methyl)piperidin-1-yl]benzamide], in assay [1], the “LXR alpha Activity @ max dose (%)” value is recorded as 16%. For the same molecule, the “LXR beta Activity @ max dose (%)” value in assay [2] (setting [3]) came to 75%.

For the molecule `CN(C)C(=O)c1ccc(N2CCC(CC3CCN(C(=O)[C@](O)(c4cccc(Cl)c4)C(F)(F)F)CC3)CC2)cc1` [Example 2-146, 4-[4-({1-[(2R)-2-(3-chloro-phenyl)-3,3,3-trifluoro-2-hydroxy-propanoyl]piperidin-4-yl}methyl)piperidin-1-yl]-N,N-dimethyl-benzamide], in assay [1], the “LXR alpha Activity @ max dose (%)” value turned out to be 10% and the “LXR alpha IP (nM)” value is reported as “NO IP”. In assay [2] (setting [3]), the “LXR beta Activity @ max dose (%)” value was 64%. The EC50 in assay [2] (read-out: LXR beta IP) came to 33 nM.

Take `CNC(=O)c1ccc(N2CCC(CC3CCN(C(=O)[C@](O)(c4cc(Cl)cc(OC)c4)C(F)(F)F)CC3)CC2)cc1Cl` [Example 7-117, 2-chloro-4-[4-({1-[(2R)-2-(3-chloro-5-methoxyphenyl)-3,3,3-trifuoro-2-hydroxypropanoyl]piperidin-4-yl}methyl)piperidin-1-yl]-N-methylbenzamide]: in assay [1], the Emax came to 0% and the “LXR alpha IP (nM)” value is on record as “NO IP”. Further, the Emax in assay [2] (setting [3]) stood at 35%. The EC50 in assay [2] (read-out: LXR beta IP) worked out at 25 nM.

On to `CN(C)C(=O)c1ccc(N2CCC(CC3CCN(C(=O)C(O)(c4cc(F)cc(F)c4)C(F)(F)F)CC3)CC2)cc1` (centres unmarked) [Example 2-126, 4-[4-({1-[2-(3,5-difluoro-phenyl)-3,3,3-trifluoro-2-hydroxy-propanoyl]piperidin-4-yl}methyl)piperidin-1-yl]-N,N-dimethyl-benzamide], for which the Emax in assay [1] worked out at 33%; in assay [2] (setting [3]), 118%. For the same molecule, the EC50 is 0.126 µM in assay [1] and 38 nM in assay [2] (read-out: LXR beta IP).

With `CC(C)C(O)(C(=O)N1CCC(CC2CCN(c3ccc(C(=O)N(C)C)c(Cl)c3)CC2)CC1)c1ccccc1` (centres unmarked) [Example 2-109, 2-chloro-4-(4-{[1-(2-hydroxy-3-methyl-2-phenylbutanoyl)piperidin-4-yl]methyl}piperidin-1-yl)-N,N-dimethyl-benzamide], the Emax in assay [1] came out at 26%; in assay [2] (setting [3]), 75%. Also, the EC50 in assay [1] is 0.982 µM; in assay [2] (read-out: LXR beta IP), 72 nM.
